Positions count from the first letter of the chain named. Where no end group is shown, it is not given here.
How the values were obtained:
Test in all cases: Homologous whole cell competition binding
Settings in all cases: homologous competition of 125I-sCT(8-32), whole cells, mean ± S.E.M., SEM
hCTR L297A = biological target: T1, hCTR L297A (Homo sapiens, UniProt P30988, L297A)
T1 construct: c-Myc (N); expressed in transfected cells
T1 sequence (P30988 25-474 L297A): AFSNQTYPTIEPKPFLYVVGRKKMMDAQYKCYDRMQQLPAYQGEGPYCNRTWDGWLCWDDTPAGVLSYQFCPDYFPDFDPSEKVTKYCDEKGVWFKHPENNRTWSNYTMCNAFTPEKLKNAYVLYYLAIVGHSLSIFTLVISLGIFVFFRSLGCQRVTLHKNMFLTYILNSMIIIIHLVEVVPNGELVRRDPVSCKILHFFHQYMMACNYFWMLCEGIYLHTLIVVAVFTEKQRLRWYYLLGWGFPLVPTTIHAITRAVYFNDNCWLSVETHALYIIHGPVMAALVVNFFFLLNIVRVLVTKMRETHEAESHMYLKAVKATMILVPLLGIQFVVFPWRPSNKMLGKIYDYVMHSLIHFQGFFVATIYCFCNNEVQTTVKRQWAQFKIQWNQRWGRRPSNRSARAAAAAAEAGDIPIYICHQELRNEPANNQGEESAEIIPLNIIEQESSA
In short: (§1)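 Homologous competition, intact cells, 4 °C overnight; tracer ^125I-sCT(8-32) 25–100 pM (two concs) vs cold sCT(8-32); NSB 1 μM cold peptide; γ counter; 3-param logistic IC50 → Cheng-Prusoff pKi; Bmax also estimated.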

hCTR Y372A = biological target: T2, hCTR Y372A (Homo sapiens, UniProt P30988, Y372A)
T2 construct: c-Myc (N); expressed in transfected cells
T2 sequence (P30988 25-474 Y372A): T1 sequence (P30988 25-474 L297A) with A273L, Y348A
In short: as §1

hCTR K366A = biological target: T3, hCTR K366A (Homo sapiens, UniProt P30988, K366A)
T3 construct: c-Myc (N); expressed in transfected cells
T3 sequence (P30988 25-474 K366A): T1 sequence (P30988 25-474 L297A) with A273L, K342A
In short: as §1

hCTR V283A = biological target: T4, hCTR V283A (Homo sapiens, UniProt P30988, V283A)
T4 construct: expressed in transfected cells
T4 sequence (P30988 25-474 V283A): T1 sequence (P30988 25-474 L297A) with V259A, A273L
In short: as §1

Ki (hCTR L297A): 0.0631 nM | Ki (hCTR Y372A): 0.141 nM | Ki (hCTR K366A): 0.195 nM | Ki (hCTR V283A): 0.214 nM
Substance: VLGKLSQELHKLQTYPRTNTGSGTP-NH2 [sCT(8-32)]

From article PMC5908784, “Extracellular loops 2 and 3 of the calcitonin receptor selectively modify agonist binding and efficacy” (Biochemical Pharmacology, 2018)
